Here are results for one molecule from publication PMC9950949 (iScience, 2023).

Structures are written as SMILES.

In this experiment the target is NLRP3 (Homo sapiens, UniProt Q96P20). Kind of experiment: microscale thermophoresis. The class given is binding. (MST reads how a fluorescent partner responds to local heating, with and without ligand.)
Sequence of NLRP3 (Q96P20 whole entry): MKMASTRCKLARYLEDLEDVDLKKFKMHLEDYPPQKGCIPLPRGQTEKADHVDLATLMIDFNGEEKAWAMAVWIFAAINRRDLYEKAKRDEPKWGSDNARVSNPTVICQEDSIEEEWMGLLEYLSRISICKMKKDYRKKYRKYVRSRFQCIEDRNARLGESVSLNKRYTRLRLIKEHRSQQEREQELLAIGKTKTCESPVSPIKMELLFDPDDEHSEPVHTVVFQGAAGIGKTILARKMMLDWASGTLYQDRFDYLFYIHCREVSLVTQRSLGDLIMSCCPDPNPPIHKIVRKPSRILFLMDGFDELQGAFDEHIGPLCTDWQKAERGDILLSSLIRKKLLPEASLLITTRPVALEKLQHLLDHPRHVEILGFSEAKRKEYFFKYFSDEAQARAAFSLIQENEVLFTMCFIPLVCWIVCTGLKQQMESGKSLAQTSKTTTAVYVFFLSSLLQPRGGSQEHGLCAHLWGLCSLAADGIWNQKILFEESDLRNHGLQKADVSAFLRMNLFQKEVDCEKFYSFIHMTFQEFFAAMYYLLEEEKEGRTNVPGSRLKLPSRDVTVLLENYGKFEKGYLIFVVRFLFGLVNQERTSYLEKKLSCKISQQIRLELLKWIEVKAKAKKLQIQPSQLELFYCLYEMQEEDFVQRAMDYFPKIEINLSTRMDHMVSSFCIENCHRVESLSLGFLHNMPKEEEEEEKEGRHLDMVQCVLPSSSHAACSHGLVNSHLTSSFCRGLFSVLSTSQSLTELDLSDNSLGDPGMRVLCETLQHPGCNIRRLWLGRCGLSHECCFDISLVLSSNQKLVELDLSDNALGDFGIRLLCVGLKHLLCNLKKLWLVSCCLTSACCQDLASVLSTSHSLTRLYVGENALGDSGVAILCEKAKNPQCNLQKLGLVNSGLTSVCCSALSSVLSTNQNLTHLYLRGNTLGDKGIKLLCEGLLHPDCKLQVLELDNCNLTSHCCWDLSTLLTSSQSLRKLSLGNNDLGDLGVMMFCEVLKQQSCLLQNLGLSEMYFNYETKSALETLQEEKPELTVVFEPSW

As for `O=C1NC(=O)[C@@H](c2cn3c4c(cccc24)CCC3)[C@@H]1c1c[nH]c2ccccc12` [Tivantinib], the Kd (as a rule, the constant that tells how readily two partners part at equilibrium) was approximately 373 nM.
